# Reference: patent US5468760A, “Aralkyl-N-hydroxyureas as inhibitors of 5-lipoxygenase and oxidation of low density lipoprotein” (American Home Products Corporation, priority 1993, dated 1995)
# Key:
# 5-Lipoxygenase = molecular target: T1, 5-Lipoxygenase (Homo sapiens, UniProt P09917); experiment: Inhibition of 5-Lipoxygenase in Human Whole Blood (LTB4, calcium ionophore A23187); assay type: cell-based; settings: 1 μM
# T1 construct: endogenous in cells; host or cells: human whole blood from male donors (results expressed per 10^6 neutrophils)
# T1 sequence (P09917 1-674): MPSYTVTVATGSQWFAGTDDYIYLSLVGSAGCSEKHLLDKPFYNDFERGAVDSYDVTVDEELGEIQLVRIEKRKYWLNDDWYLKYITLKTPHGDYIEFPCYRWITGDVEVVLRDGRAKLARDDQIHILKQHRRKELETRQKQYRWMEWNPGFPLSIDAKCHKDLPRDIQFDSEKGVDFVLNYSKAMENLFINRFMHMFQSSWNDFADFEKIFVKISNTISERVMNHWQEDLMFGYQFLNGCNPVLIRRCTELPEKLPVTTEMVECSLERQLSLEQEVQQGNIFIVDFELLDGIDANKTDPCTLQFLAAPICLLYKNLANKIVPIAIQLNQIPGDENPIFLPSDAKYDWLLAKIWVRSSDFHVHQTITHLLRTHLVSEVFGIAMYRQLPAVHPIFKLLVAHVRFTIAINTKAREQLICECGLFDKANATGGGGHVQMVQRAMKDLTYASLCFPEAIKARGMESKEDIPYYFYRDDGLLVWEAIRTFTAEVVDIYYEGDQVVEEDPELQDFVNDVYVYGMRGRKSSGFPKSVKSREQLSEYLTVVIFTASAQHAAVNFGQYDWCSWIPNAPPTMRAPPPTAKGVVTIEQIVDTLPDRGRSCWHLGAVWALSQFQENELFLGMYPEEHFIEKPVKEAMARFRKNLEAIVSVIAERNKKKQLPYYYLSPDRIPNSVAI
# Protocol: 1. Inhibition of 5-Lipoxygenase in Human Whole Blood
# Blood is obtained in 50-100 ml quantities from male donors. White blood cell counts and differentials are made. Two ml of blood are placed in a 15 ml polypropylene test tube. Test compounds are solubilized in dimethylsulfoxide and diluted in 1:10 in 10% bovine serum albumin in phosphate buffered saline, pH 7.4 resulting in a final dimethylsulfoxide concentration of 0.1% in the blood. Then, solutions of test compounds are added to the blood in a shaking water bath at 37° C. for 10 minutes prior to the addition of 30 μM calcium ionophore (A23 187, Sigma). After ionophore administration, whole blood samples are mixed and incubated for 20 minutes at 37° C. in a shaking water bath. Incubation is terminated by placing samples in an ice bath and immediately adding ethylene glycol-bis-(β-aminoethyl ether)-N,N,N',N'-tetraaceticacid (10 mM). Samples are mixed and centrifuged at 1200 x g for 15 minutes at 4° C. Preparation of samples for evaluation by RIA or ELISA is carried out by the following protocol. Plasma is removed from sample tubes, placed in 15 ml polypropylene test tubes containing 8 ml methanol, and then vortexed to precipitate protein. Samples are stored at -70° C. overnight. The next day, samples are centrifuged at 200 x g for 15 minutes at 4° C. to pellet the precipitate. Samples are dried in a Savant SpeedVac Concentrator, Model SVC 200H, reconstituted to original volume with ice cold RIA or ELISA buffer, and stored at -70° C. until assayed. The assay for eicosanoids (LTB4, TxB2, and PGE2) is performed as described by the manufacturer of the [^3 H]-RIA kit or ELISA kit (LTB4 -Amersham, TxB2 and PGE2 -Caymen Chemical).
# The total eicosanoid level in 2 ml of blood is calculated and reported as ng/10^6 neutrophils. Significance is determined by a one-way analysis of variance with least significant difference (LSD) comparisons to control (p≤0.05) and IC50 's (μM) are determined by regression analysis (Finney, 1978). Drug effects are expressed as percent change from control values.
# Lipoxygenase = experiment: Ex-Vivo Measurement of Lipoxygenase Inhibition in Orally Dosed Rats (LTB4); design: species or system rat (male Sprague Dawley); settings: p.o.
# Protocol: 2. Ex-Vivo Measurement of Lipoxygenase Inhibition in Orally Dosed Rats
# Male Sprague Dawley rats (Charles River) weighing between 180 g and 200 g were dosed orally with an invention compound (1-25 mg/kg, po) suspended in 0.5% Tween 80®. After an interval of 3 or 6 hours, the rats were anesthetized with metofane (n=4/group) and blood collected in heparinized tubes. White blood cell counts and differentials were made. One ml of blood from each animal was placed in a 5 ml plastic tube in a shaker bath at 37° C. A23187 at a final concentration of 10 μM was added to the blood and the blood vortexed and incubated for 15 min at […] with gentle shaking. Incubation was terminated by vortexing sample and centrifuging immediately at 1200 xG for 15 min at 4° C. The plasma was transferred to 15 ml plastic tubes each containing 8 ml of methanol to precipitate protein followed by vortexing. The samples were stored at -70 ° C. overnight and the next day the samples were centrifuged at 800 xG for 15 min to pellet the precipitate. The samples were dried in a Savant SpeedVac Concentrator Model SVC 200H and reconstituted to the original volume with cold RIA or ELISA buffer. The reconstituted samples were stored at -70° C. until assayed. The assay for LTB4 was performed according to the directions of the [^3 H]RIA kit or ELISA kit (Seragen). The total metabolite level in 1 ml of blood is calculated and reported as ng/10^6 neutrophils. Significance is determined by a one-way analysis of variance with LSD comparisons to control (p≤0.05).
# [1] = 10 mg/kg, pretreatment period 6 hr
SMILES,inhibition at 1 µM (5-Lipoxygenase),"% Inhibition of LTB4 (Lipoxygenase; 25 mg/kg, pretreatment period 3 hr)",% Inhibition of LTB4 (Lipoxygenase; [1]),"% Inhibition of LTB4 (Lipoxygenase; 5 mg/kg, pretreatment period 6 hr)"
"NC(=O)N(O)Cc1cccc(OCc2csc(-c3ccccc3)n2)c1 [Example 5, 1-Hydroxy-1-[3-(2-phenyl-thiazol-4-ylmethoxy)-benzyl]-urea]",66%,–,80%,–
"NC(=O)N(O)Cc1cccc(OCc2csc(-c3ccc(Cl)cc3)n2)c1 [Example 6, 1-Hydroxy-1-[3-[2-(4-chloro-phenyl)-thiazol-4-ylmethoxy]-benzyl]-urea]",68%,–,67%,–
"Cc1oc(-c2ccccc2)nc1COc1cc(F)cc(CN(O)C(N)=O)c1 [Example 13, 1-[3-Fluoro-5-(5-methyl-2-phenyl-oxazol-4-ylmethoxy)-benzyl]-1-hydroxy-urea]",70%,–,–,52%

# More lines, main results first:
inhibition at 1 µM (5-Lipoxygenase),SMILES,"% Inhibition of LTB4 (Lipoxygenase; 25 mg/kg, pretreatment period 3 hr)",% Inhibition of LTB4 (Lipoxygenase; [1]),"% Inhibition of LTB4 (Lipoxygenase; 5 mg/kg, pretreatment period 6 hr)"
52%,"Cc1oc(-c2ccccc2)nc1COc1cccc(CN(O)C(N)=O)c1 [Example 1, 1-Hydroxy-1-[3-(5-methyl-2-phenyl-oxazol-4-ylmethoxy)-benzyl]-urea]",86%,–,–
74%,"Cc1oc(-c2ccc(F)cc2)nc1COc1cccc(CN(O)C(N)=O)c1 [Example 9, 1-[3-[2-(4-fluorophenyl)-5-methyl-oxazol-4-ylmethoxy]-benzyl]-1-hydroxy-urea]",–,50%,–
